Reference: the NIST ThermoML archive (doi:10.1016/j.tca.2010.02.008)

Assay: excess molar enthalpy (molar enthalpy of mixing); xn = mol fraction of the nth substance listed
Settings: 773.15 K, 101 kPa, Liquid, Calvet calorimetry

[In] [indium] + [Sn]
Settings	excess molar enthalpy [kcal/mol]
x2 = 0.1	-0.0437
x2 = 0.1966	-0.0894
x2 = 0.2981	-0.104
x2 = 0.4041	-0.0915
x2 = 0.5002	-0.0791
x2 = 0.5005	-0.0755
x2 = 0.5949	-0.0719
x2 = 0.6901	-0.0576
x2 = 0.7891	-0.0394
x2 = 0.8975	-0.0208
